Results published in patent US6525001B1, “Substituted pyrimidine and pyridine herbicides” (Mid-American Commercialization Corporation, priority 1997, dated 2003).

Tests used:
Assay type in all cases: in vivo
[1] = tested on: giant foxtail (Setaria faberii); test: Test C; parameters: key: 0 was no effect; 100 was complete control; details: PREEMERGENCE
[2] = tested on: field bindweed (Convolvulus arvensis); test: Test C; parameters: key: 0 was no effect; 100 was complete control; details: PREEMERGENCE
[3] = tested on: lambsquarters (Chenopodium album); test: Test C; parameters: key: 0 was no effect; 100 was complete control; details: PREEMERGENCE
[4] = tested on: soybean (Glycine max); test: Test C; parameters: key: 0 was no effect; 100 was complete control; details: PREEMERGENCE
[5] = tested on: surinam grass (Brachiaria decumbens); test: Test C; parameters: key: 0 was no effect; 100 was complete control; details: PREEMERGENCE
[6] = tested on: wild poinsettia (Euphorbia heterophylla); test: Test C; parameters: key: 0 was no effect; 100 was complete control; details: PREEMERGENCE
[7] = tested on: redroot pigweed (Amaranthus retroflexus); test: Test C; parameters: key: 0 was no effect; 100 was complete control; details: PREEMERGENCE
[8] = tested on: eastern black nightshade (Solanum ptycanthum); test: Test C; parameters: key: 0 was no effect; 100 was complete control; details: PREEMERGENCE
[9] = tested on: fall panicum (Panicum dichotomiflorum); test: Test C; parameters: key: 0 was no effect; 100 was complete control; details: PREEMERGENCE
[10] = tested on: bamyardgrass (Echinochloa crus-galli); test: Test B flood test
Summary of the method: (§1)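 Read-out is a visual response score from 0 (no effect) to 10 (complete control), assigned by comparison with untreated controls. Treatment was applied at the 2-leaf stage, and plants stayed in the greenhouse for twelve to sixteen days before scoring.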

[11] = tested on: smallflower flatsedge (Cyperus difformis); test: Test B flood test; details: for S. Flatsedge plant response rating: Rate 125 g/ha, Postemergence section (flood test species)
Summary of the method: as §1

[12] = tested on: duck salad (Heteranthera limosa); test: Test B flood test
Summary of the method: as §1

[13] = tested on: rice (Oryza sativa); test: Test B flood test; details: for Rice plant response rating: Rate 125 g/ha, Postemergence section (flood test species)
Summary of the method: as §1

[14] = tested on: wild oat (Avena fatua); test: Test B pre-/postemergence; parameters: key: 0 is no effect; 10 is complete control
Summary of the method: (§2)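 Compounds in a surfactant-containing, non-phytotoxic solvent blend are applied to freshly planted seed (preemergence) and, concurrently, to seedlings of 2 to 18 cm at 1–4 leaves (postemergence). Plants stay in the greenhouse twelve to sixteen days and are then scored visually from 0 (no effect) to 10 (complete control).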

[15] = tested on: purple nutsedge (Cyperus rotundus); test: Test B pre-/postemergence; parameters: key: 0 is no effect; 10 is complete control
Summary of the method: as §2

[16] = tested on: common ragweed (Ambrosia elatior); test: Test C; parameters: key: 0 was no effect; 100 was complete control; details: PREEMERGENCE
[17] = tested on: cotton (Gossypium hirsutum); test: Test C; parameters: key: 0 was no effect; 100 was complete control; details: PREEMERGENCE
[18] = Rate 62 g/ha, Postemergence (flood test)
[19] = Rate 125 g/ha, Postemergence, flood test
[20] = Rate 250 g/ha, Postemergence (flood test species)
[21] = Rate 250 g/ha, Postemergence (so in the source)

Compound: Cc1cnc(-n2cnc(C(F)(F)F)n2)nc1Cc1cccc(C(F)(F)F)c1 [Compound 43]
- Plant response rating, Giant foxtail ([1]; Rate 35 g/ha): 100
- Plant response rating, Giant foxtail ([1]; Rate 70 g/ha): 100
- Plant response rating, Giant foxtail ([1]; Rate 140 g/ha): 100
- Plant response rating, Field bindweed ([2]; Rate 35 g/ha): 100
- Plant response rating, Field bindweed ([2]; Rate 70 g/ha): 100
- Plant response rating, Field bindweed ([2]; Rate 140 g/ha): 100
- Plant response rating, Lambsquarters ([3]; Rate 35 g/ha): 100
- Plant response rating, Lambsquarters ([3]; Rate 70 g/ha): 100
- Plant response rating, Lambsquarters ([3]; Rate 140 g/ha): 100
- Plant response rating, Soybean ([4]; Rate 35 g/ha): 0
- Plant response rating, Soybean ([4]; Rate 70 g/ha): 5
- Plant response rating, Soybean ([4]; Rate 140 g/ha): 55
- Plant response rating, Surinam grass ([5]; Rate 35 g/ha): 0
- Plant response rating, Surinam grass ([5]; Rate 70 g/ha): 5
- Plant response rating, Surinam grass ([5]; Rate 140 g/ha): 10
- Plant response rating, Wild poinsettia ([6]; Rate 35 g/ha): 10
- Plant response rating, Wild poinsettia ([6]; Rate 70 g/ha): 50
- Plant response rating, Wild poinsettia ([6]; Rate 140 g/ha): 60
- Plant response rating, Redroot pigweed ([7]; Rate 35 g/ha): 100
- Plant response rating, Redroot pigweed ([7]; Rate 70 g/ha): 100
- Plant response rating, Redroot pigweed ([7]; Rate 140 g/ha): 100
- Plant response rating, E. blacknightsh ([8]; Rate 35 g/ha): 100
- Plant response rating, E. blacknightsh ([8]; Rate 70 g/ha): 100
- Plant response rating, E. blacknightsh ([8]; Rate 140 g/ha): 100
- Plant response rating, Fall panicum ([9]; Rate 35 g/ha): 100
- Plant response rating, Fall panicum ([9]; Rate 70 g/ha): 100
- Plant response rating, Fall panicum ([9]; Rate 140 g/ha): 100
- Plant response rating, Barnyardgrass [10, 18]: 4
- Plant response rating, Barnyardgrass [10, 19]: 4
- Plant response rating, Barnyardgrass [10, 20]: 5
- Plant response rating, S. Flatsedge [11, 18]: 9
- S. Flatsedge plant response rating [11]: 9
- Plant response rating, S. Flatsedge [11, 20]: 9
- Plant response rating, Ducksalad [12, 18]: 8
- Plant response rating, Ducksalad [12, 19]: 9
- Plant response rating, Ducksalad [12, 20]: 9
- Plant response rating, Rice [13, 18]: 4
- Rice plant response rating [13]: 6
- Plant response rating, Rice [13, 20]: 7
- Wild oats plant response rating ([14]; Rate 62 g/ha, Postemergence): 4
- Wild oats plant response rating ([14]; Rate 62 g/ha, Preemergence): 6
- Wild oats plant response rating ([14]; Rate 125 g/ha, Postemergence): 5
- Plant response rating, Wild oats ([14]; Rate 125 g/ha, Preemergence): 9
- Plant response rating, Wild oats ([14]; Rate 250 g/ha, Postemergence): 6
- Plant response rating, Wild oats [14, 21]: 9
- Plant response rating, Nutsedge ([15]; Rate 62 g/ha, Postemergence): 0
- Nutsedge plant response rating ([15]; Rate 62 g/ha, Preemergence): 0
- Nutsedge plant response rating ([15]; Rate 125 g/ha, Postemergence): 2
- Nutsedge plant response rating ([15]; Rate 125 g/ha, Preemergence): 0
- Plant response rating, Nutsedge ([15]; Rate 250 g/ha, Postemergence): 3
- Plant response rating, Common ragweed ([16]; Rate 35 g/ha): 0
- Plant response rating, Common ragweed ([16]; Rate 70 g/ha): 40
- Plant response rating, Common ragweed ([16]; Rate 140 g/ha): 50
- Plant response rating, Cotton ([17]; Rate 35 g/ha): 0
- Plant response rating, Cotton ([17]; Rate 70 g/ha): 0
- Plant response rating, Cotton ([17]; Rate 140 g/ha): 10

Compound: CCc1cnc(-n2ccc(C(F)(F)F)n2)nc1Cc1cccc(C(F)(F)F)c1 [Compound 46]
- Plant response rating, Giant foxtail ([1]; Rate 35 g/ha): 100
- Plant response rating, Giant foxtail ([1]; Rate 70 g/ha): 100
- Plant response rating, Giant foxtail ([1]; Rate 140 g/ha): 100
- Plant response rating, Field bindweed ([2]; Rate 35 g/ha): 10
- Plant response rating, Field bindweed ([2]; Rate 70 g/ha): 70
- Plant response rating, Field bindweed ([2]; Rate 140 g/ha): 100
- Plant response rating, Lambsquarters ([3]; Rate 35 g/ha): 60
- Plant response rating, Lambsquarters ([3]; Rate 70 g/ha): 100
- Plant response rating, Lambsquarters ([3]; Rate 140 g/ha): 100
- Plant response rating, Soybean ([4]; Rate 35 g/ha): 0
- Plant response rating, Soybean ([4]; Rate 70 g/ha): 0
- Plant response rating, Soybean ([4]; Rate 140 g/ha): 20
- Plant response rating, Surinam grass ([5]; Rate 35 g/ha): 0
- Plant response rating, Surinam grass ([5]; Rate 70 g/ha): 5
- Plant response rating, Surinam grass ([5]; Rate 140 g/ha): 25
- Plant response rating, Wild poinsettia ([6]; Rate 35 g/ha): 0
- Plant response rating, Wild poinsettia ([6]; Rate 70 g/ha): 15
- Plant response rating, Wild poinsettia ([6]; Rate 140 g/ha): 20
- Plant response rating, Redroot pigweed ([7]; Rate 35 g/ha): 70
- Plant response rating, Redroot pigweed ([7]; Rate 70 g/ha): 100
- Plant response rating, Redroot pigweed ([7]; Rate 140 g/ha): 100
- Plant response rating, E. blacknightsh ([8]; Rate 35 g/ha): 80
- Plant response rating, E. blacknightsh ([8]; Rate 70 g/ha): 100
- Plant response rating, E. blacknightsh ([8]; Rate 140 g/ha): 100
- Plant response rating, Fall panicum ([9]; Rate 35 g/ha): 60
- Plant response rating, Fall panicum ([9]; Rate 70 g/ha): 100
- Plant response rating, Fall panicum ([9]; Rate 140 g/ha): 100
- Plant response rating, Barnyardgrass [10, 18]: 2
- Plant response rating, Barnyardgrass [10, 19]: 3
- Plant response rating, Barnyardgrass [10, 20]: 4
- Plant response rating, S. Flatsedge [11, 18]: 4
- S. Flatsedge plant response rating [11]: 5
- Plant response rating, S. Flatsedge [11, 20]: 7
- Plant response rating, Ducksalad [12, 18]: 1
- Plant response rating, Ducksalad [12, 19]: 1
- Plant response rating, Ducksalad [12, 20]: 4
- Plant response rating, Rice [13, 18]: 1
- Rice plant response rating [13]: 2
- Plant response rating, Rice [13, 20]: 4
- Wild oats plant response rating ([14]; Rate 62 g/ha, Postemergence): 3
- Wild oats plant response rating ([14]; Rate 62 g/ha, Preemergence): 6
- Wild oats plant response rating ([14]; Rate 125 g/ha, Postemergence): 4
- Plant response rating, Wild oats ([14]; Rate 125 g/ha, Preemergence): 8
- Plant response rating, Wild oats ([14]; Rate 250 g/ha, Postemergence): 4
- Plant response rating, Wild oats [14, 21]: 9
- Plant response rating, Nutsedge ([15]; Rate 62 g/ha, Postemergence): 2
- Nutsedge plant response rating ([15]; Rate 125 g/ha, Preemergence): 0
- Plant response rating, Nutsedge [15, 21]: 0
- Plant response rating, Common ragweed ([16]; Rate 35 g/ha): 10
- Plant response rating, Common ragweed ([16]; Rate 70 g/ha): 20
- Plant response rating, Common ragweed ([16]; Rate 140 g/ha): 80
- Plant response rating, Cotton ([17]; Rate 35 g/ha): 0
- Plant response rating, Cotton ([17]; Rate 70 g/ha): 5
- Plant response rating, Cotton ([17]; Rate 140 g/ha): 40
